Consider 4 compounds from ChEMBL document CHEMBL1201862, “PubChem BioAssay data set” (2004).

Activity calls are given as the source filed them.

Assay [1] concerns the target T1, Sentrin-specific protease 8 (Homo sapiens, UniProt Q96LD8).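 Note: kinetic enzyme assay of SENP8 cleaving a Nedd8 protein substrate, dose-response confirmation of screening hits.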
T1 sequence (Q96LD8 whole entry): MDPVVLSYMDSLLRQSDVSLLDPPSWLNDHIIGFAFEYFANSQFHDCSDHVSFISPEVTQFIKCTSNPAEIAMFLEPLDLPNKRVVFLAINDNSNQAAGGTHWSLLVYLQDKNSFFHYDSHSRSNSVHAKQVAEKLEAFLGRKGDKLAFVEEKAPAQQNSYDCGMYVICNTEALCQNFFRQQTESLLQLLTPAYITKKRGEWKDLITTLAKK
It counts as functional.

The nature of assay [2]: NIH3T3 cell viability loss – ATP luminescence, mouse fibroblasts, counter-screen, dose response (AID 2010).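 Note: cells exposed to compound for about 90 hours before reading.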 It counts as functional, cell-based. In general terms: The purpose of a counterscreen is to sort out artefacts and off-target activity.
Assay [3] concerns the target ORF 73 (Human herpesvirus 8, UniProt O40947). Briefly: KSHV LANA DNA-binding disruption – biochemical, fluorescence polarization, cherry-picked samples, dose response (AID 504725).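 Note: fluorescence polarization of a labeled DNA duplex reporting LANA DNA binding; potency is for inhibitors that block LANA binding to the DNA.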 Set-up: species or system Human gammaherpesvirus 8. A general note: Polarisation of emitted light reports the rotation of a fluorescent probe.
Assay [4] concerns the target T2, Alkaline phosphatase, tissue-nonspecific isozyme (Homo sapiens, UniProt P05186).
T2 sequence (P05186 whole entry): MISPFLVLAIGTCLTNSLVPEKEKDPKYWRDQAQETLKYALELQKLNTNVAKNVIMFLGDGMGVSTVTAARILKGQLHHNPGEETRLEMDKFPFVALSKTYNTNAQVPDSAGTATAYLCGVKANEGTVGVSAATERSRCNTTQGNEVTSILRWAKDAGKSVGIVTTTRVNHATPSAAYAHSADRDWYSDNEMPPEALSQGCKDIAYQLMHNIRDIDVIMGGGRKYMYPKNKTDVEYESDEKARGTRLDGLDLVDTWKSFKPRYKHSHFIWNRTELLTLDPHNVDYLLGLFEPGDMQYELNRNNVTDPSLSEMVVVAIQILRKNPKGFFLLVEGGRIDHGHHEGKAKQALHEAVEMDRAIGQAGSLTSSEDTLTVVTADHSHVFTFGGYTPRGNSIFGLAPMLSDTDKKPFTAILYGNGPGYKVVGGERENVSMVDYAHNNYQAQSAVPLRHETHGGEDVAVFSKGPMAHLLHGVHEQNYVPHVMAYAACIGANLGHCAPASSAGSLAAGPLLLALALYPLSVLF
Briefly: inhibition of tissue-nonspecific alkaline phosphatase – biochemical, dose response (AID 488882). The format is functional.

Assay [5] concerns the target Intestinal-type alkaline phosphatase (Homo sapiens, UniProt P09923). The experiment in a line: inhibition of human intestinal alkaline phosphatase – biochemical, luminescent, uHTS hits, set 2, dose response (AID 488793). The format is functional.
Assay [6] addresses Ribosomal protein S6 kinase alpha-3 (Homo sapiens, UniProt P51812). It counts as functional.
For assay [7], the target named is cGMP-dependent protein kinase 1 (Homo sapiens, UniProt Q13976). It counts as functional.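 Note: value from a kinome panel screen with PRKG1 as the panel member.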
Assay [8] has as its target Serine/threonine-protein kinase pim-2 (Homo sapiens, UniProt Q9P1W9). The format is functional.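 Note: value comes from a broad kinase panel profiling study in which PIM2 was one of the panel members.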
Assay [9] concerns the target Casein kinase II subunit alpha (Homo sapiens, UniProt P68400). The format is functional.
For assay [10], the target named is Fibroblast growth factor receptor 3 (Homo sapiens, UniProt P22607). The format is functional.
Fibroblast growth factor receptor 3, sequence (P22607 whole entry): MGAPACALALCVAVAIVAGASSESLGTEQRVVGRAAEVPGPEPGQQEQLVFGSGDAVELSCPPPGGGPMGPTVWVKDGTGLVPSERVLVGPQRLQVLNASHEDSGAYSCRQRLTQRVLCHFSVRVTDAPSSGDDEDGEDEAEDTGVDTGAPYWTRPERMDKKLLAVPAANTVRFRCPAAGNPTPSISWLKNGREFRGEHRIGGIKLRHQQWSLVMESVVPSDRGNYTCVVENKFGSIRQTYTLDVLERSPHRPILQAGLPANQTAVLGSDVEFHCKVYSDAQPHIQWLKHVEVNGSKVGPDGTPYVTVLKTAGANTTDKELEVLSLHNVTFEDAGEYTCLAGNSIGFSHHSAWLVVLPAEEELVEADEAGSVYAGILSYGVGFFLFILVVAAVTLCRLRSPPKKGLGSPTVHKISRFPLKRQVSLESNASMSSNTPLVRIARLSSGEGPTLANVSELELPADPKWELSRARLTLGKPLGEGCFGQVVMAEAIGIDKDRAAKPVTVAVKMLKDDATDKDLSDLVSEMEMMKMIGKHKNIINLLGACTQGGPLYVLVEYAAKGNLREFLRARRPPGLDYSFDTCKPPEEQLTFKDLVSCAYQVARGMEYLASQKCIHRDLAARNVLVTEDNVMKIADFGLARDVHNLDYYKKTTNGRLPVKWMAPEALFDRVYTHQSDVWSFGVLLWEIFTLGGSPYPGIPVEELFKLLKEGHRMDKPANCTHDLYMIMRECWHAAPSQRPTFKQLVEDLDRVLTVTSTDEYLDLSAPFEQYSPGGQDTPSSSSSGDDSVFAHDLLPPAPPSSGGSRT
The target of assay [11] is MAP kinase-activated protein kinase 5 (Homo sapiens, UniProt Q8IW41). The format is functional.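 Note: measured as one member of a kinome panel.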
MAP kinase-activated protein kinase 5, sequence (Q8IW41 whole entry): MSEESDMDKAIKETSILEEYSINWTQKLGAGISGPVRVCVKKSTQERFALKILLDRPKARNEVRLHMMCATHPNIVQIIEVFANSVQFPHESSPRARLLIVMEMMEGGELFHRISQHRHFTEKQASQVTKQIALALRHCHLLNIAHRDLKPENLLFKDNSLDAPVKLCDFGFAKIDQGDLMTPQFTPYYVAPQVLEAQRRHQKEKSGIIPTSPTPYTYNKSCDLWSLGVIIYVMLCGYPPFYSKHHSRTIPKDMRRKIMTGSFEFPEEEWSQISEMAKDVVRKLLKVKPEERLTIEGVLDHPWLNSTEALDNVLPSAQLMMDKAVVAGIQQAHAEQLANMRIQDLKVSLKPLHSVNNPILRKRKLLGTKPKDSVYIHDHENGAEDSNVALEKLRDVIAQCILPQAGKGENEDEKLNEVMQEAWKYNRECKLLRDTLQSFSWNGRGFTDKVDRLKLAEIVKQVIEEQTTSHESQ
Assay [12] has as its target Hepatocyte growth factor receptor (Homo sapiens, UniProt P08581). The format is functional.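 Note: kinase panel profiling across the kinome, with MET as the panel member.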
In assay [13] the target is Tyrosine-protein kinase JAK3 (Homo sapiens, UniProt P52333). The format is functional.
Assay [14] deals with Casein kinase I isoform alpha (Homo sapiens, UniProt P48729). The format is functional.
Casein kinase I isoform alpha, sequence (P48729 whole entry, canonical isoform): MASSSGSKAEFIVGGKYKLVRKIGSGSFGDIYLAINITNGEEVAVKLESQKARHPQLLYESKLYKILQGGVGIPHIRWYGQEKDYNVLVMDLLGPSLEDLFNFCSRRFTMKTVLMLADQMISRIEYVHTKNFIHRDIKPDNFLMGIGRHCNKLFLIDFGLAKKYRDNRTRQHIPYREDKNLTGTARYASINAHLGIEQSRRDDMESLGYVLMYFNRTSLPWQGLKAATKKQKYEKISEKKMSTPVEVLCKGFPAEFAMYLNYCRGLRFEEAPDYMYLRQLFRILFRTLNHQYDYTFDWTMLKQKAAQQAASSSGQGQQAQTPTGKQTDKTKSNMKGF
Assay [15] addresses Calcium/calmodulin-dependent protein kinase type 1 (Homo sapiens, UniProt Q14012). The format is functional.
For assay [16], the target named is Serine/threonine-protein kinase TAO1 (Homo sapiens, UniProt Q7L7X3). It counts as functional.
The target in assay [17] is Dual specificity tyrosine-phosphorylation-regulated kinase 4 (Homo sapiens, UniProt Q9NR20). The format is functional.
Dual specificity tyrosine-phosphorylation-regulated kinase 4, sequence (Q9NR20 whole entry): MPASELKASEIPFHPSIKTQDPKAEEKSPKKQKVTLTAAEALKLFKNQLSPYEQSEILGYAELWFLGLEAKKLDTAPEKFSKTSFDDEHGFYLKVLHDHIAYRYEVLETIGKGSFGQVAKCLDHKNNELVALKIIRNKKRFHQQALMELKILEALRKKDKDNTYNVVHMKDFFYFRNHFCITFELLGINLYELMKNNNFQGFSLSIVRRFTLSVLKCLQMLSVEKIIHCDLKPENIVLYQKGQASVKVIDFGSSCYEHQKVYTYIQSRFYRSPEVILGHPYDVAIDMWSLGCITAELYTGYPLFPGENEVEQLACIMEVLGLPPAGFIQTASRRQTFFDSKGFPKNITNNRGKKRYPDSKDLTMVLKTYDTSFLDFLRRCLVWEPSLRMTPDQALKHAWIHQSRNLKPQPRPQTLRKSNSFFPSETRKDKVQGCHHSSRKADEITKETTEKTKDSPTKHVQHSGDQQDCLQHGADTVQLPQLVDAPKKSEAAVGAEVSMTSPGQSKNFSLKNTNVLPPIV
The target of assay [18] is Vascular endothelial growth factor receptor 3 (Homo sapiens, UniProt P35916). It counts as functional.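 Note: value from a kinome-wide profiling panel, with FLT4 as the panel member.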
Vascular endothelial growth factor receptor 3, sequence (P35916 whole entry): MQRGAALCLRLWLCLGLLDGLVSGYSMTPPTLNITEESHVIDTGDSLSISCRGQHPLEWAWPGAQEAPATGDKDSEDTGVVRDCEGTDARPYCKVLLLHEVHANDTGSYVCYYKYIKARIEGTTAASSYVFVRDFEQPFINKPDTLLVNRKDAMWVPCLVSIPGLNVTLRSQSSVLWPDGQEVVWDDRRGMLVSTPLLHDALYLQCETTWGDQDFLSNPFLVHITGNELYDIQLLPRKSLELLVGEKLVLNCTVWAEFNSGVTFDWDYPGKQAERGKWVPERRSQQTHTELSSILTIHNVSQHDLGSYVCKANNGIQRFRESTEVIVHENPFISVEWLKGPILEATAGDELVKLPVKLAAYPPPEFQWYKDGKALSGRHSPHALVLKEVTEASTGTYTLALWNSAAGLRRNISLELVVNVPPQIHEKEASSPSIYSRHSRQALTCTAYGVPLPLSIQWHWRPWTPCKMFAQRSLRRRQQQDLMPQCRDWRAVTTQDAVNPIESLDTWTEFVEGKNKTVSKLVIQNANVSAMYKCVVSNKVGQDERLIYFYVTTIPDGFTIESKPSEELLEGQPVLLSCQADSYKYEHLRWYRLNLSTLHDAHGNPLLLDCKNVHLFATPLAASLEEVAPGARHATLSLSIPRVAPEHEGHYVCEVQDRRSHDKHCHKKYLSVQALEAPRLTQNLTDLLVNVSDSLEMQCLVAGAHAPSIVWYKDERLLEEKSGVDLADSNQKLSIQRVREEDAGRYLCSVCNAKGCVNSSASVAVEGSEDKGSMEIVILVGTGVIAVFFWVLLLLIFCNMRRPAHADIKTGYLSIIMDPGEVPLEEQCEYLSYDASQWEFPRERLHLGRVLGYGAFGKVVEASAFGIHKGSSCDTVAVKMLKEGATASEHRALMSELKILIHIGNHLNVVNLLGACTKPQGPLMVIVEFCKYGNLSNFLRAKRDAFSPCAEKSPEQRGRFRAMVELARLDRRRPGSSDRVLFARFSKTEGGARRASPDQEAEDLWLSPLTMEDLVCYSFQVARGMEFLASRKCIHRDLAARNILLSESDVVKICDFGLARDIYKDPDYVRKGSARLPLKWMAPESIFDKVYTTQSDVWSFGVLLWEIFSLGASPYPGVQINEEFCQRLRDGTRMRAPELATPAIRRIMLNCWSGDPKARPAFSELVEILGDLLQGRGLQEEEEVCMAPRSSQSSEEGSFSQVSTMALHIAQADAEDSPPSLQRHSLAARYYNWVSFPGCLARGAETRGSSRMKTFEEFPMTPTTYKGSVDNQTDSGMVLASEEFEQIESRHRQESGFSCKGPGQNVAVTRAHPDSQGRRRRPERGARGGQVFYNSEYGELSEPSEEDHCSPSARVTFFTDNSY
The target of assay [19] is Serine/threonine-protein kinase Chk2 (Homo sapiens, UniProt O96017). The format is functional.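 Note: CHEK2 entry within a kinome-wide screening panel.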
Serine/threonine-protein kinase Chk2, sequence (O96017 whole entry): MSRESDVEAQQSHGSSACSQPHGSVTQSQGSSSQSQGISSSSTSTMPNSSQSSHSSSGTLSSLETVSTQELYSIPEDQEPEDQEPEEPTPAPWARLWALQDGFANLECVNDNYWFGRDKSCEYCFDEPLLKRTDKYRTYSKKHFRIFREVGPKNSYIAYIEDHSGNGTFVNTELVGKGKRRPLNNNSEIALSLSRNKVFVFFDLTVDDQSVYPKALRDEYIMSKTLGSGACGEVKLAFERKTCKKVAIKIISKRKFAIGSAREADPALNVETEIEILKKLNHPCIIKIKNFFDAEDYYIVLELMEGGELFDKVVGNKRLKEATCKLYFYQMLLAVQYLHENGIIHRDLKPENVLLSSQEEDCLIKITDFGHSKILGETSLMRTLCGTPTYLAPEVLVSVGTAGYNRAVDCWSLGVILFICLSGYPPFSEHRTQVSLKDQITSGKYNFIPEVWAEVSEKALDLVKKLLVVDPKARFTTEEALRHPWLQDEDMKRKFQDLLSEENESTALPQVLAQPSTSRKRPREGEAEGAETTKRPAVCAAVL

Calcium/calmodulin-dependent protein kinase type 1, sequence (Q14012 whole entry): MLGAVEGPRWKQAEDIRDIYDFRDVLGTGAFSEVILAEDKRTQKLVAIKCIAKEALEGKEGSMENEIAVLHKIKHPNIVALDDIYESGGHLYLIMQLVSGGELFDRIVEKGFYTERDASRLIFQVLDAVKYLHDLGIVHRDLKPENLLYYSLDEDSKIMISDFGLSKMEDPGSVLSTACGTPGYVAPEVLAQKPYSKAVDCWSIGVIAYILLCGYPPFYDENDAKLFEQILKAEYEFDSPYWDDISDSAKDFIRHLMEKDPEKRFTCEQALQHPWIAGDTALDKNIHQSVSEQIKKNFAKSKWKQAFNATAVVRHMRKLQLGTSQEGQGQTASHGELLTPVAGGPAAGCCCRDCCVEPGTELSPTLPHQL
Intestinal-type alkaline phosphatase, sequence (P09923 whole entry): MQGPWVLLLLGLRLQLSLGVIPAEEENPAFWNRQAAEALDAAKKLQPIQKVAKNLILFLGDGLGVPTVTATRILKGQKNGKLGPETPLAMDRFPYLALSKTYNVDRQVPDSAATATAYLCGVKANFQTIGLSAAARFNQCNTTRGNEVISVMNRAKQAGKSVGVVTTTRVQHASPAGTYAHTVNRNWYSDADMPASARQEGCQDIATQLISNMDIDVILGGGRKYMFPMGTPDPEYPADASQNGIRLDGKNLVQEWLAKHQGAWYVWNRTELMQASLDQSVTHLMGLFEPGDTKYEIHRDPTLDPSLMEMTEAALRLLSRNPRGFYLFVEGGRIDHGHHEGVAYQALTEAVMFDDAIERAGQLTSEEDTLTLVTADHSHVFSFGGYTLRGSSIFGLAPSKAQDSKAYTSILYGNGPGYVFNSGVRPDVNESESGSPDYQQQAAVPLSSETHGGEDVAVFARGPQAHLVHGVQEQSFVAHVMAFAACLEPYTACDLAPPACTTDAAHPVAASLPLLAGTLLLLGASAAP

One may read the IC50 as the concentration that gives 50% inhibition. As usually defined, the EC50 is the concentration that produces a half-maximal response. As for `O=C(CCc1ccccc1)NNc1cc(N2CCCCC2)nc(N2CCCCC2)n1`, the IC50 in [1] was 1010 nM (active). Moreover, the EC50 in assay [2] was > 60000 nM (not active).

Broadly, the AC50 is the midpoint of the concentration-response curve, whichever way the signal moves. Regarding `O=C(O)C1Nc2c(O)cc(Cl)c([N+](=O)[O-])c2C2C=CCC12` (stereo not given), the AC50 in assay [3] was 5020 nM (active).

`Oc1ccc(N=Nc2c(O)ccc3ccccc23)cc1`: the IC50 in [4] is 16500 nM (active); in [5], 15500 nM (active).

A word on the Ki: it is a dissociation constant, usually derived from enzyme kinetics or from competition with a known ligand. A word on the pKi: it is the negative decadic logarithm of the Ki, by convention in mol/L. Consider `Cc1n[nH]c2ccc(-c3cncc(OCC(N)Cc4cccc(Cl)c4)c3)cc12` (stereo not given), for which the Ki in [6] was 15.8 nM (active); in assay [7], 10 nM (active); in assay [8], 10 nM (active); in assay [9] it was 3980 nM (active); in assay [10], > 2000 nM (inactive); in assay [11], > 1580 nM (inactive). Moreover, the Ki in assay [12] was > 3160 nM (inactive); in assay [13] it was 794 nM (active); in assay [14], 126 nM (active); in assay [15], 100 nM (active); in assay [16] it was 316 nM (active); in assay [17] it was 316 nM (active). Further, the Ki is 2510 nM (active) in assay [18] and 631 nM (active) in assay [19]. In addition, the pKi in assay [15] amounted to 7.
